From paper PMC13130965, “An Integrated Approach Combining Regulatory Tests in tg(cyp19a1b:GFP) Zebrafish Embryos to Assess Toxicity, Developmental Effects, and Estrogenic Activity of Chemicals: A Case Study with Bisphenol A Substitutes” (Environmental Science & Technology, 2026)
Converted amounts (≈) assume the structure as drawn. Like-named read-outs stand apart in the source and are kept apart here.

Legend:
[1] = tested on: tg(cyp19a1b:GFP) zebrafish embryos; test: Refined FET: developmental effects / malformations; assay type: in vivo, zebrafish (Danio rerio); conditions: nominal; for EC50: Danio rerio, end of 96 h exposure, read-out: EC50 malformations (cumulative sublethal end points); for LOEC deformity of yolk: at least 10% of embryos affected
Method: (§1) Exposures were carried out in presaturated 24-well plates containing one embryo per well in 2 mL of test solution. The exposure was performed under semistatic conditions, with daily renewal of the test solution. The concentration ranges tested, along with a control with the same percentage of solvent alone, are recapitulated in Table S1. All exposure concentrations are reported as nominal. During the time course of the refined FET tests, embryos were observed after 8 h (coagulation), 24 h (lack of somite formation and nondetachment of the tail), and 48, 72, and 96 h of exposure (nondetection of the heartbeat). […] Moreover, hatching rate and nonlethal developmental effects (i.e., yolk deformity, growth retardation, spontaneous movement, edema, blood tail circulation, heart rate, pigmentation, head and tail/spinal malformations, and hemorrhage) were monitored daily. Tail/spinal malformations included lordosis, kyphosis, scoliosis, and reduced tail length.
(§2) This analysis considered all nonlethal developmental end points monitored in the refined FET assay (see above), except effects on hatching, pigmentation, spontaneous movement, and blood circulation. A teratogenic index (TI) was then calculated as the ratio LC50/EC50.

[2] = ref Adamovsky et al.; cited from earlier work
[3] = Refined Fish Embryo Acute Toxicity test (FET, OECD TG 236): mortality; assay type: in vivo, zebrafish (Danio rerio); conditions: tg(cyp19a1b:GFP), zebrafish, in vivo, other: waterborne exposure of embryos in test solution, LC50 (96h) experimental (FET test), nominal, brackets 95% CI
Method: as §1, §2
(§3) Baseline toxicity and experimental FET LC50 values were used to calculate toxic ratios (TR = predicted baseline toxicity LC50/experimental FET LC50). Compounds with TR < 10 were considered as baseline toxicants.

hERβ [4] = tested on: hERβ; parameters: method as in Pelch et al.; conditions: HepG2-hERβ, ref Pelch et al., cited from earlier work; for EC50: NA = not active
zebrafish ERβ2 (zfERβ2) = zebrafish ERβ2 (zfERβ2) (Danio rerio, UniProt Q7ZU32); test: ZELH-zfERβ2 luciferase reporter gene assay; assay type: cell-based; conditions: read-out: maximal efficacy
Method: The ZELH-zfERs reporter cell line was previously established after a two-step stable transfection of the zebrafish hepatic cell line ZFL with the luciferase gene under the control of ERE (yielding the ZELH cell line that expresses no functional ER) and the zebrafish ER subtype β2 (yielding the ZELH-zfERβ2 cell line). Cells were cultured, exposed to chemicals for 72 h, and measured for luciferase activity exactly as previously described. , For each chemical, serial dilutions were prepared in DMSO and tested in three independent experiments. The final DMSO concentration in the culture medium was always 0.1% v/v. All tested concentrations refer to nominal concentrations.

Zebrafish embryos = conditions: cited from earlier work; for LOEC (body length, GnRH3 neurons, reproductive neuroendocrine-related genes and hormones) / NOEC (body length, GnRH3 neurons, reproductive neuroendocrine-related genes and hormones): 120h-exposure, ref Qiu et al. (2021); for LC10(96h): ref Blanc et al. (2019)
Adult Zebrafish = conditions: ref Ren et al. (2017); cited from earlier work
hERβ [5] = tested on: hERβ; parameters: method as in Grimaldi et al.; conditions: HELN-hERβ; ref Grimaldi et al.; cited from earlier work
[6] = tested on: cyp19a1b:GFP (brain aromatase) in tg(cyp19a1b:GFP) zebrafish embryos; test: EASZY assay (OECD TG 250): GFP induction; assay type: in vivo, zebrafish (Danio rerio); conditions: for EC50: read-out: EASZY relative EC50, nominal
Method: The tests were conducted according to OECD TG 250. Newly fertilized cyp19a1b-GFP eggs were transferred to glass crystallizing dishes and exposed for 96 h in a humidified climate chamber (27 ± 2 °C) under semistatic conditions with a total renewal of the test solutions each day. Each condition consisted of three crystallizing dishes, each containing 7 embryos and 15 mL of test medium. Embryos were exposed to a range of nonlethal concentrations of chemicals as determined previously based on the refined FET assays. The tested concentration ranges of bisphenols, along with a control with the same percentage of solvent alone, are summarized in Table S2. All exposure concentrations are reported as nominal. At the end of exposure, transgenic zebrafish embryos were collected for fluorescence imaging to quantify GFP intensity. At the end of the experiments, all living zebrafish embryos were euthanized as described above. […] ICI was added together with bisphenols from 0 to 4 dpf (days post fertilization). […] In all coexposure experiments, the final DMSO concentration was 0.02% (v/v).
For fluorescence imaging, GFP fold induction was expressed as mean ± SEM, and values were compared to the DMSO control using one-way ANOVA followed by Dunnett’s posthoc test. […]

[7] = tested on: cyp19a1b:GFP (brain aromatase) in tg(cyp19a1b:GFP) zebrafish embryos; test: Refined FET: GFP fluorescence imaging at 96 h; assay type: in vivo, zebrafish (Danio rerio); conditions: nominal
Method: as §1, with “All the tests were conducted according to OECD TG 236, except for the temperature (27 ± 2 °C), which was aligned with the OECD TG 250 (see below). Exposures” for “Exposures”, “length. […] To do so, each embryo was photographed and analyzed as described by Brion et al. At the end of the refined FET assay, all living zebrafish embryos were euthanized using a protocol combining anesthesia induced by 168 mg/L tricaine (Pharmaq, delivered from Vetofish, Chateauneuf-les-Martigues, France) and the addition of bleach solution (sodium hypochlorite 6.15%; 1 volume of bleach to 5 volumes of water) to induce death.” for “length.”
For fluorescence imaging, GFP fold induction was expressed as mean ± SEM, and values were compared to the DMSO control using one-way ANOVA followed by Dunnett’s posthoc test.

[8] = tested on: tg(cyp19a1b:GFP) zebrafish embryos; test: Refined Fish Embryo Acute Toxicity test (FET, OECD TG 236): mortality; assay type: in vivo, zebrafish (Danio rerio); conditions: nominal, brackets 95% CI
Method: as §1, §2, §3

[9] = zebrafish embryos, ref Gao et al.
[10] = zebrafish embryos, ref Ren et al. (2017)
[11] = 150h exposure, ref Song et al. (2014)

zebrafish ERβ2 (zfERβ2), sequence (Q7ZU32 1-553): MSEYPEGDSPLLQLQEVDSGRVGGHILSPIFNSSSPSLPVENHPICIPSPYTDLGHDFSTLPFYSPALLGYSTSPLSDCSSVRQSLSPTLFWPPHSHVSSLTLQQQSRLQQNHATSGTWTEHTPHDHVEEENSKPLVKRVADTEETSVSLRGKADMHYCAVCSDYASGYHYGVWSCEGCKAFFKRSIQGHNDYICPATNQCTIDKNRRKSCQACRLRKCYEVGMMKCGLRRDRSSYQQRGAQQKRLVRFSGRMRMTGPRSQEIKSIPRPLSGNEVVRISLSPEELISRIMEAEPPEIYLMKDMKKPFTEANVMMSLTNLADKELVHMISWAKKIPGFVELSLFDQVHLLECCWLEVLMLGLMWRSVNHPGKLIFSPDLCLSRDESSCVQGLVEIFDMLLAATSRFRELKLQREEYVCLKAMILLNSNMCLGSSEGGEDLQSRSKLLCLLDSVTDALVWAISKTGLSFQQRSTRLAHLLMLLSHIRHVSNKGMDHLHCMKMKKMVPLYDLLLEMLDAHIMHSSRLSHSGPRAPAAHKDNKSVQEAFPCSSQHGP

Structure (SMILES)	EC50 [1]	Log Kow [2]	LC50 at 96 h [3]	maximal efficacy (hERβ [4])	LOEC heart rate disruption [1]	LOEC hemorrhage [1]	LOEC no blood tail circulation [1]	LOEC tail/spinal malformations [1]	Emax (zebrafish ERβ2 (zfERβ2))	LOEC edema [1]	LOEC head malformations [1]	LOEC deformity of yolk [1]	EC50 (hERβ [5])	maximal efficacy (hERβ [5])	also measured
O=S(=O)(c1ccc(O)cc1)c1ccc(OCc2ccccc2)cc1 [BPS-MPE, 4-(4-phenylmethoxyphenyl) sulfonylphenol]	3.45 µg/mL (≈ 10.1 µM)	4.18	3.17 µg/mL (≈ 9.31 µM)	4%	–	–	–	–	–	–	–	–	–	–	–
Cc1cc(C(C)(C)c2ccc(O)c(C)c2)ccc1O [BPC, 4-[2-(4-hydroxy-3-methylphenyl)propan-2-yl]-2-methylphenol]	2.77 µg/mL (≈ 10.8 µM)	4.32	4.92 µg/mL (≈ 19.2 µM)	–	8.53 mg/L	8.53 mg/L	8.53 mg/L	8.53 mg/L	66%	–	–	–	–	–	LC50 (96h) literature (Zebrafish embryos; [9]): 2.22 µg/mL (≈ 8.66 µM)
CCC(C)(c1ccc(O)cc1)c1ccc(O)cc1 [BPB, 4-[2-(4-hydroxyphenyl)butan-2-yl] phenol]	5.4 µg/mL (≈ 22.3 µM)	3.95	6.85 µg/mL (≈ 28.3 µM)	56%	10 mg/L	10 mg/L	–	–	66%	5 mg/L	10 mg/L	10 mg/L	128 nM	60%	LOEC no spontaneous movement [1]: 10 mg/L; LC50(24h) (Adult Zebrafish): 5.07 µg/mL (≈ 20.9 µM); LC50(48h) (Adult Zebrafish): 4.64 µg/mL (≈ 19.1 µM); LC50(72h) (Adult Zebrafish): 4.15 µg/mL (≈ 17.1 µM); LC50(96h) (Adult Zebrafish): 4.15 µg/mL (≈ 17.1 µM); LOEC (body length, GnRH3 neurons, reproductive neuroendocrine-related genes and hormones) (Zebrafish embryos): 100 µg/L; NOEC (body length, GnRH3 neurons, reproductive neuroendocrine-related genes and hormones) (Zebrafish embryos): 1 µg/L; NOEC (developmental toxicity) (Zebrafish embryos; Wildtype (AB/TL), 1-6 dpf static + 6-9 dpf semistatic, ref Catron et al. (2018; 2019)): 5.1 µM; LC50 (Zebrafish embryos; read-out: LC50(96h), Wildtype AB, 96h-exposure, ref Arrokhman et al. (2023)): 28000 nM; LC50 (96h) literature (Zebrafish embryos; zebrafish embryos, ref Arrokhman et al.): 6.79 µg/mL (≈ 28 µM); LC50 (96h) literature (Zebrafish embryos; [9]): 3.52 µg/mL (≈ 14.5 µM); Body length LOEC (Zebrafish embryos; [10]): 2 mg/L; Body length NOEC (Zebrafish embryos; [10]): 1 mg/L; LC50(24h) (Zebrafish embryos; [10]): 7.18 µg/mL (≈ 29.6 µM); LC50(48h) (Zebrafish embryos; [10]): 6.54 µg/mL (≈ 27 µM); LC50(72h) (Zebrafish embryos; [10]): 4.53 µg/mL (≈ 18.7 µM); LC50 (96h) literature (Zebrafish embryos; zebrafish embryos, ref Ren et al.): 3.88 µg/mL (≈ 16 µM); minimal effective concentration ([6]; Danio rerio, 96 h, read-out: EASZY LOEC (GFP induction), nominal): 0.312 µg/mL
Oc1ccc(Oc2ccc(O)cc2)cc1 [4,4’-ODP, 4-(4-hydroxyphenoxy)phenol]	0.35 µg/mL (≈ 1.73 µM)	–	17.1 µg/mL (≈ 84.3 µM)	–	2.96 mg/L	0.99 mg/L	8.89 mg/L	2.96 mg/L	61%	0.99 mg/L	2.96 mg/L	2.96 mg/L	3060 nM	72%	LOEC growth retardation [1]: 8.89 mg/L; LOEC no/Less pigmentation [1]: 0.99 mg/L; EC50 ([6]; Danio rerio, 96 h, 96 h): 0.363 µg/mL (≈ 1.8 µM)
O=S(=O)(c1ccc(O)cc1)c1ccc(O)cc1 [BPS, 4-(4-hydroxyphenyl)sulfonylphenol]	–	–	–	77%	–	–	–	–	85%	–	–	400 mg/L	1720 nM	100%	EC50 ([7]; Danio rerio, Hill model, read-out: EC50 GFP induction in refined FET): 35.7 µg/mL (≈ 143 µM); EC10 GFP induction in refined FET [7]: 16.6 µg/mL (≈ 66.3 µM); EC20 GFP induction in refined FET [7]: 22.0 µg/mL (≈ 87.9 µM); EC50 (hERβ [4]): 2100 nM; LC10(96h) (Zebrafish embryos; 4-days exposure): > 100 µg/mL; Hatching success EC50(72h) (Zebrafish embryos; 4-days exposure, ref Moreman et al. (2017)): 155 (15) mg/L; LOEC (body length, GnRH3 neurons, reproductive neuroendocrine-related genes and hormones) (Zebrafish embryos): 100 µg/L; NOEC (body length, GnRH3 neurons, reproductive neuroendocrine-related genes and hormones) (Zebrafish embryos): 1 µg/L; LC10(96h) (Zebrafish embryos): > 400000 nM; Body length LOEC (Zebrafish embryos; [10]): 350 mg/L; Body length NOEC (Zebrafish embryos; [10]): 300 mg/L; Hatching rate EC50(120h) (Zebrafish embryos; [10]): 200 µg/mL; Heart rate EC50(78h) (Zebrafish embryos; [10]): 318 µg/mL; EC50 ([6]; Danio rerio, 96 h, 96 h): 62.7 µg/mL (≈ 251 µM)
CC(C)(c1cc(Cl)c(O)c(Cl)c1)c1cc(Cl)c(O)c(Cl)c1 [TCBPA, Tetrachloro-bisphenol A]	0.48 µg/mL (≈ 1.31 µM)	6.19	0.88 µg/mL (≈ 2.4 µM)	15%	1 mg/L	–	1 mg/L	0.5 mg/L	42%	0.5 mg/L	1 mg/L	1 mg/L	68000 nM	21%	LOEC no spontaneous movement [1]: 2 mg/L; LOEC no/Less pigmentation [1]: 1 mg/L; concentrations causing lethal effects (Zebrafish embryos; 3-6 dpf exposure, ref Riu et al. (2014)): above 1 µM; LC50(144h) (Zebrafish embryos; [11]): 0.75 µg/mL (≈ 2.05 µM); LOAELs (Zebrafish embryos; [11]): 1 mg/L; LC50 (96h) literature (Zebrafish embryos; zebrafish embryos, ref Song et al.): ≈ 1 mg/L; estrogenic activity in EASZY assay ([6]; zebrafish, in vivo): absence of estrogenic activity
Nc1ccc(Cl)c(Cl)c1 [3,4-DCA, reference compound]	–	–	–	–	–	–	–	–	–	–	–	–	–	–	LC50 (96h) experimental (FET test) [8]: 2.46 µg/mL (≈ 15.2 µM); mean LC50 of FET positive control (Zebrafish embryos; ref OECD TG 236 validation report): 2.7 µg/mL
